Measured values published in patent US11759455B2, “Substituted 1H-imidazo[4,5-b]pyridin-2(3H)-ones and their use as GLUN2B receptor modulators” (JANSSEN PHARMACEUTICA NV, priority 2016, dated 2023).

Biological target: T1, human GluN1/GluN2B NMDA receptors (Homo sapiens, UniProt Q13224)
T1 construct: expressed in transfected cells
Assay: Cell-based calcium flux (FLIPR) assay on cloned human NR1/NR2B ion channels expressed in mammalian cells (standard and HTS buffer variants);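 note: stable Tet-On inducible cell line, Ca2+ influx triggered by glutamate at about EC40 plus 10 µM glycine, fluorescent dye read-out over 5 min, normalized to control wells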
Conditions: standard assay buffer (0.5 mM MgCl2 dye loading; 137 mM NaCl, 4 mM KCl assay buffer), human GluN1/GluN2B cells, read-out: NR2B IC50 (μM) standard assay

T1 sequence (Q13224 27-1484, other chains not shown): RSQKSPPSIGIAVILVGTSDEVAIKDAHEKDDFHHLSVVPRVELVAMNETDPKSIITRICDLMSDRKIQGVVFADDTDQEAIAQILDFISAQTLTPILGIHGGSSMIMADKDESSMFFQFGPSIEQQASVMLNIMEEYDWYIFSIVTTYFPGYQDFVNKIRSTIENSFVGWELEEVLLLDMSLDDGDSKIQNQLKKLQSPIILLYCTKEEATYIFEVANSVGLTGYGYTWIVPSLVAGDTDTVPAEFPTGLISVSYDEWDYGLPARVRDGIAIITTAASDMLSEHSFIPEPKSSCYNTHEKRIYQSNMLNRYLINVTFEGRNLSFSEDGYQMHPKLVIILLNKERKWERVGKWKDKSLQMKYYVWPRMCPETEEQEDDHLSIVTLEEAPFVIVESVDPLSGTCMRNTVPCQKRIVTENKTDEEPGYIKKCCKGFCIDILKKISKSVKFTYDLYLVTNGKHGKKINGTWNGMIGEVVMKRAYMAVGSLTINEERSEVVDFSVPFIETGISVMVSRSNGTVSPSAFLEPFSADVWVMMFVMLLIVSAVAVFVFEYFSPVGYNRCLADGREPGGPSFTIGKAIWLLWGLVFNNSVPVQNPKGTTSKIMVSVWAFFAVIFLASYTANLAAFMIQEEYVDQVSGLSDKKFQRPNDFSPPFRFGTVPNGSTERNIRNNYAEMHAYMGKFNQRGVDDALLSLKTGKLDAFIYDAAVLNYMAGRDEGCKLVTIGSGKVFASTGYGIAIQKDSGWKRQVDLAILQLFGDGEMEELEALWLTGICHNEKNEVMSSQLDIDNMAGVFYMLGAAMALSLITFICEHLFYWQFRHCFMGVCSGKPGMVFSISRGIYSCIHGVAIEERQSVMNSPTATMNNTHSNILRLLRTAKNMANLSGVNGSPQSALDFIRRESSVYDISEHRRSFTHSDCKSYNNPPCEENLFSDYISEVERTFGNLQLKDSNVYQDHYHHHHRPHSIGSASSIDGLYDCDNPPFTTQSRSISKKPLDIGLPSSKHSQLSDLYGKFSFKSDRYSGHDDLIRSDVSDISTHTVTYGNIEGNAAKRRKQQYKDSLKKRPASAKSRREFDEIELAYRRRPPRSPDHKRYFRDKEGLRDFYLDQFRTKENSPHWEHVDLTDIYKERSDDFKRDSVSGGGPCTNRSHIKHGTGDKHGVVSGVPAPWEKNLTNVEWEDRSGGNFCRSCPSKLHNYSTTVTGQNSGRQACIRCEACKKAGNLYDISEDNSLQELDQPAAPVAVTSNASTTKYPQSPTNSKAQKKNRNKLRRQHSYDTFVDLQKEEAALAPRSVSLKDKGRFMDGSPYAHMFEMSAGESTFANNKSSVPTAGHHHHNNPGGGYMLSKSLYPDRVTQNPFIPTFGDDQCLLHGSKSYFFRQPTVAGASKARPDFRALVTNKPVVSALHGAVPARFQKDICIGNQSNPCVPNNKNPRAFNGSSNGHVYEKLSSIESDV

| IC50 | Compound |
| --- | --- |
| 0.311 µM | O=c1[nH]c2ncc(-c3cccc(OC(F)(F)F)c3)cc2n1CCN1CCC1 [Example 160, 1-[2-(Azetidin-1-yl)ethyl]-6-[3-(trifluoromethoxy)phenyl]-3H-imidazo[4,5-b]pyridin-2-one] |
| 1.43 µM | O=c1[nH]c2ncc(-c3cccc(C(F)(F)F)c3)cc2n1CCN1CCCCC1 [Example 161, 1-[2-(1-Piperidyl)ethyl]-6-[3-(trifluoromethyl)phenyl]-3H-imidazo[4,5-b]pyridin-2-one] |
| 1.1 µM | O=c1[nH]c2ncc(-c3cccc(C(F)(F)F)c3)cc2n1CCN1CCC(F)CC1 [Example 162, 1-[2-(4-Fluoro-1-piperidyl)ethyl]-6-[3-(trifluoromethyl)phenyl]-3H-imidazo[4,5-b]pyridin-2-one] |
| 0.246 µM | O=c1[nH]c2ncc(-c3cccc(C(F)(F)F)c3)cc2n1CCN1CC(F)C1 [Example 163, 1-[2-(3-Fluoroazetidin-1-yl)ethyl]-6-[3-(trifluoromethyl)phenyl]-3H-imidazo[4,5-b]pyridin-2-one] |
| 1.22 µM | CC1CCN(CCn2c(=O)[nH]c3ncc(-c4cccc(C(F)(F)F)c4)cc32)C1 (stereo not drawn) [Example 164, 1-[2-(3-Methylpyrrolidin-1-yl)ethyl]-6-[3-(trifluoromethyl)phenyl]-3H-imidazo[4,5-b]pyridin-2-one] |
| 3.48 µM | O=c1[nH]c2ncc(-c3cccc(C(F)(F)F)c3)cc2n1CCN1CC(C(F)(F)F)C1 [Example 166, 1-[2-[3-(Trifluoromethyl)azetidin-1-yl]ethyl]-6-[3-(trifluoromethyl)phenyl]-3H-imidazo[4,5-b]pyridin-2-one] |
| 0.158 µM | O=c1[nH]c2ncc(-c3cccc(C(F)(F)F)c3)cc2n1CCN1CC(F)(F)C1 [Example 167, 1-[2-(3,3-Difluoroazetidin-1-yl)ethyl]-6-[3-(trifluoromethyl)phenyl]-3H-imidazo[4,5-b]pyridin-2-one] |
| 4.23 µM | Cc1c(-c2cnc3[nH]c(=O)n(CCN4CCC4)c3c2)cccc1C(F)(F)F [Example 168, 1-[2-(Azetidin-1-yl)ethyl]-6-[2-methyl-3-(trifluoromethyl)phenyl]-3H-imidazo[4,5-b]pyridin-2-one] |
| 0.217 µM | Cc1cccc(-c2cnc3[nH]c(=O)n(CCN4CCC4)c3c2)c1C [Example 169, 1-[2-(Azetidin-1-yl)ethyl]-6-(2,3-dimethylphenyl)-3H-imidazo[4,5-b]pyridin-2-one] |
| 0.581 µM | Cc1cc(C)cc(-c2cnc3[nH]c(=O)n(CCN4CCC4)c3c2)c1 [Example 170, 1-[2-(Azetidin-1-yl)ethyl]-6-(3,5-dimethylphenyl)-3H-imidazo[4,5-b]pyridin-2-one] |
| 0.21 µM | Cc1c(F)ccc(-c2cnc3[nH]c(=O)n(CCN4CCC4)c3c2)c1C [Example 171, 1-[2-(Azetidin-1-yl)ethyl]-6-(4-fluoro-2,3-dimethyl-phenyl)-3H-imidazo[4,5-b]pyridin-2-one] |
| 0.326 µM | Cc1ccc(C(F)(F)F)cc1-c1cnc2[nH]c(=O)n(CCN3CCC3)c2c1 [Example 172, 1-[2-(Azetidin-1-yl)ethyl]-6-[2-methyl-5-(trifluoromethyl)phenyl]-3H-imidazo[4,5-b]pyridin-2-one] |
| 4.26 µM | O=c1[nH]c2ncc(-c3cc(F)cc(F)c3)cc2n1CCNCCO [Example 173, 6-(3,5-Difluorophenyl)-1-[2-(2-hydroxyethylamino)ethyl]-3H-imidazo[4,5-b]pyridin-2-one] |
| 1.25 µM | O=c1[nH]c2ncc(-c3cc(F)cc(F)c3)cc2n1CCN1CCCC1 [Example 174, 6-(3,5-Difluorophenyl)-1-(2-pyrrolidin-1-ylethyl)-3H-imidazo[4,5-b]pyridin-2-one] |
| 2.11 µM | O=c1[nH]c2ncc(-c3cc(F)cc(F)c3)cc2n1CCN1CCC(O)C1 (stereo not drawn) [Example 175, 6-(3,5-Difluorophenyl)-1-[2-(3-hydroxypyrrolidin-1-yl)ethyl]-3H-imidazo[4,5-b]pyridin-2-one] |
